IC50 data for six molecules are collected here from ChEMBL document CHEMBL6109161, “Novel Pyrazolo[1,5-a]pyrimidine-3,5-diamines as nSMase2 Inhibitors” (ACS Med Chem Lett, 2025).

A short description of this experiment: Inhibition of recombinant human neutral sphingomyelinase 2 using […] as substrate in presence of alkaline phosphatase, choline oxidase and horseradish peroxidase by fluorescence-based coupled assay.
Broadly, the IC50 is the concentration that inhibits the measured activity by half. As to `CN(C)c1cnn2ccc(NCc3ccccc3)nc12`, the IC50 is 0.08 µM.

For the molecule `CN(C)c1cnn2ccc(NCc3ccc(C(F)(F)F)cc3)nc12`, the IC50 stood at 0.04 µM.

As for `CN(C)c1ccc(CNc2ccn3ncc(N(C)C)c3n2)cc1`, the IC50 worked out at 0.1 µM.

Turning to `CN(C)c1cnn2ccc(N3CCOCC3)nc12`, the IC50 came to 0.06 µM.

Turning to `CC1CCCN1c1ccn2ncc(N(C)C)c2n1` (stereo unspecified), the IC50 came to 0.07 µM.

As to `COc1ccc(CNc2ccn3ncc(N(C)C)c3n2)cc1OC`, the 50% inhibitory concentration (IC50) came to 0.03 µM.
